Melting point data for one compound are collected here from US7439356B2, “Substituted indan derivatives” (AstraZeneca AB, priority 1997, dated 2008).

The term melting point denotes the temperature of the solid-liquid transition. Take `CN1CCN(c2cccc3c2CC(C(=O)Nc2ccc(N4CCOCC4)cc2)C3)CC1` (stereo not shown) [Example 4, 4-(4-Methylpiperazin-1-yl)-N-(4-morpholinophenyl)indan-2-carboxamide]: the melting point is 248 to 249 °C.
